ChEMBL document CHEMBL5291721, “A preclinical secondary pharmacology resource illuminates target-adverse drug reaction associations of marketed drugs” (Nat Commun, 2023)

How the values were obtained:
[1] = molecular target: Melanocortin receptor 3 (Homo sapiens, UniProt P41968)
[2] = molecular target: Voltage-dependent L-type calcium channel subunit alpha-1C (Rattus norvegicus, UniProt P22002); assay type: functional
[3] = molecular target: 3',5'-cyclic-AMP phosphodiesterase 4D (Homo sapiens, UniProt Q08499); assay type: functional
3',5'-cyclic-AMP phosphodiesterase 4D, sequence (Q08499 whole entry): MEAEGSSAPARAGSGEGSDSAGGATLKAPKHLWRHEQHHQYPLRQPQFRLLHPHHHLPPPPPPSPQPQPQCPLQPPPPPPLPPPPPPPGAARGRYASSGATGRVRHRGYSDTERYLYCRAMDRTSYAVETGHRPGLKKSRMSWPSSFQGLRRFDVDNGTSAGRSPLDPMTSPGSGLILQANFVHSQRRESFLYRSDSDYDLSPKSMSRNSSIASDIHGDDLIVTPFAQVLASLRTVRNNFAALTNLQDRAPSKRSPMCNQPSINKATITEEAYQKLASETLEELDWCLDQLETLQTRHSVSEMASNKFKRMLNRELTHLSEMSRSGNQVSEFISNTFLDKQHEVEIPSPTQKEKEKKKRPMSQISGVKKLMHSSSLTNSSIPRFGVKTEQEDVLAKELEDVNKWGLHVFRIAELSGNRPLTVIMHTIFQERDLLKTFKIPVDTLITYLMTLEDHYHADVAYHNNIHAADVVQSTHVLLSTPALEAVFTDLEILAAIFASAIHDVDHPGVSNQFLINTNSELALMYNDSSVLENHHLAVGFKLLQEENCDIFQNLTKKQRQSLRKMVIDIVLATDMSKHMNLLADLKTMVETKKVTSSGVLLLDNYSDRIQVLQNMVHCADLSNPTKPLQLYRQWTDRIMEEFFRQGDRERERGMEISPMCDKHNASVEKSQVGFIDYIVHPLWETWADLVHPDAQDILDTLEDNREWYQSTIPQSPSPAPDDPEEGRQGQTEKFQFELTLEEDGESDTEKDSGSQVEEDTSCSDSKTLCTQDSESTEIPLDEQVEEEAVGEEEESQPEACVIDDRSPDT

[4] = molecular target: cGMP-inhibited 3',5'-cyclic phosphodiesterase 3A (Homo sapiens, UniProt Q14432); assay type: functional
[5] = molecular target: T1, Progesterone receptor (Homo sapiens, UniProt P06401); assay type: functional
T1 sequence (P06401 whole entry): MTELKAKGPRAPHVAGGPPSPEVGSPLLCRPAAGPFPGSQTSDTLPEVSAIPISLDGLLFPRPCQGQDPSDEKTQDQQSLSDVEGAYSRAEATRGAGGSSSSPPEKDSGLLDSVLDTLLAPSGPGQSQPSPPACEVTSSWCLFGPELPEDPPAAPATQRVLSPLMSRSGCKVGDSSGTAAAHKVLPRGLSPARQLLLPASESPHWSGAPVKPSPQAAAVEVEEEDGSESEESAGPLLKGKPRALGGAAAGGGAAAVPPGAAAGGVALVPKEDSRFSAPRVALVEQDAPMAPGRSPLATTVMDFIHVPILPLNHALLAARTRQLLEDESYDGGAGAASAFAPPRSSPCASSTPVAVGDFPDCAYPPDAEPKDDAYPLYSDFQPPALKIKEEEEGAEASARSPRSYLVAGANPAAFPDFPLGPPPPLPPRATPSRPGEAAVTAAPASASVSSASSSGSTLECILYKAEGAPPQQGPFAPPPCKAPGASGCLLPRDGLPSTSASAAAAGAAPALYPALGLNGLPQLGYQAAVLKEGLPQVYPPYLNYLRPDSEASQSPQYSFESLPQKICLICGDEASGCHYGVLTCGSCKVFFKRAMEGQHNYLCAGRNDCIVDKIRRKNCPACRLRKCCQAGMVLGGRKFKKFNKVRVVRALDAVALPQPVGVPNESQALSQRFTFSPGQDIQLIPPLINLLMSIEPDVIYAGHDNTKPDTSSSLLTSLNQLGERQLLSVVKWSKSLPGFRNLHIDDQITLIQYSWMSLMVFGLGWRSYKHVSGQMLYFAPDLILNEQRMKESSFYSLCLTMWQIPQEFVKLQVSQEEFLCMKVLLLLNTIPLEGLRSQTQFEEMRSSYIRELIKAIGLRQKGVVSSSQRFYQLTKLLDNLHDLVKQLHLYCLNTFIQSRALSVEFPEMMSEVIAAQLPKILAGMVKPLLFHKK

[6] = molecular target: T2, Amine oxidase [flavin-containing] A (Homo sapiens, UniProt P21397); assay type: functional
T2 sequence (P21397 whole entry): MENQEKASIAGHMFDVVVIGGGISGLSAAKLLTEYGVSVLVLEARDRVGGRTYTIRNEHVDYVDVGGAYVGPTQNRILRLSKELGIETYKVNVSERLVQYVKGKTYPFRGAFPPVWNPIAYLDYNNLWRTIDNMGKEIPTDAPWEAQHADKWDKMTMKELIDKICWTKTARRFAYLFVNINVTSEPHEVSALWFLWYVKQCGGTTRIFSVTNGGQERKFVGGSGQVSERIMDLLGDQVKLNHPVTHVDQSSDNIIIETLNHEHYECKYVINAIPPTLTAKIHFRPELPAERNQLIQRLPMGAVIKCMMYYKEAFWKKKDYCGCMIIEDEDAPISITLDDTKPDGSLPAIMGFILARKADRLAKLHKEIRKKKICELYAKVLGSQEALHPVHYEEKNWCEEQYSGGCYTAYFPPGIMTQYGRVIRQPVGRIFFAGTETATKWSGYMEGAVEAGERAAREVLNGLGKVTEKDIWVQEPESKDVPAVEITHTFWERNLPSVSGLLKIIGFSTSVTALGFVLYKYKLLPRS

[7] = molecular target: Histamine H2 receptor (Homo sapiens, UniProt P25021); assay type: functional, cell-based
Histamine H2 receptor, sequence (P25021 whole entry): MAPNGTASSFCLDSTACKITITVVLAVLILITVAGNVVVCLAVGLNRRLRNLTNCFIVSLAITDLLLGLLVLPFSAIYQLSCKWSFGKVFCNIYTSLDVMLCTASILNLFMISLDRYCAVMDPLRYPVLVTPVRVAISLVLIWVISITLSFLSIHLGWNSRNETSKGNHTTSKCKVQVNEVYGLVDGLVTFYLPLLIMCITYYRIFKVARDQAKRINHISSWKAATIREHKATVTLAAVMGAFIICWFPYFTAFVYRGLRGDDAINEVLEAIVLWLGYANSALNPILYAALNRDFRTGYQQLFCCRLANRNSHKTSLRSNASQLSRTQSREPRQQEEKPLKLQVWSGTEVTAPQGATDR

[8] = molecular target: T3, 5-hydroxytryptamine receptor 1A (Homo sapiens, UniProt P08908); assay type: functional, cell-based
T3 sequence (P08908 whole entry): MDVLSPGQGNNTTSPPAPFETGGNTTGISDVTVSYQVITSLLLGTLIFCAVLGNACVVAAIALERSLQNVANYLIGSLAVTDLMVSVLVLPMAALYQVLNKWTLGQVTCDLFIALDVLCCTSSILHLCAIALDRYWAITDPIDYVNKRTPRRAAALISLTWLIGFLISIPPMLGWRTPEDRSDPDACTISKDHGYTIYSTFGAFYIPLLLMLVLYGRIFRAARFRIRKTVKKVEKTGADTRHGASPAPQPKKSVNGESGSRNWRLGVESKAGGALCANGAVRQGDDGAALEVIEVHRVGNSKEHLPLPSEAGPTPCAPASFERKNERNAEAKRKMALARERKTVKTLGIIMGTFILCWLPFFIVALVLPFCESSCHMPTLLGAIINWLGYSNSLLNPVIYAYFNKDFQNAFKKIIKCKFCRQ

[9] = molecular target: T4, Adenosine receptor A3 (Homo sapiens, UniProt P0DMS8)
T4 sequence (P0DMS8 whole entry): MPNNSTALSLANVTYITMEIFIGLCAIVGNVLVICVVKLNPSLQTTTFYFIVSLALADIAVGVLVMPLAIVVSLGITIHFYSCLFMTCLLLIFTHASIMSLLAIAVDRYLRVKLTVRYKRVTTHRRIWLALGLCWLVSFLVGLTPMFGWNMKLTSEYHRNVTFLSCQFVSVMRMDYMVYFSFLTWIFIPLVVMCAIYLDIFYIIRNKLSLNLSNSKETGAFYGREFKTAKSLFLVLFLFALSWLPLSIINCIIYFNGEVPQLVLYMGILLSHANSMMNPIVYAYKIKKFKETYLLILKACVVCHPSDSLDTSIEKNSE

[10] = molecular target: D(3) dopamine receptor (Homo sapiens, UniProt P35462)
D(3) dopamine receptor, sequence (P35462 whole entry): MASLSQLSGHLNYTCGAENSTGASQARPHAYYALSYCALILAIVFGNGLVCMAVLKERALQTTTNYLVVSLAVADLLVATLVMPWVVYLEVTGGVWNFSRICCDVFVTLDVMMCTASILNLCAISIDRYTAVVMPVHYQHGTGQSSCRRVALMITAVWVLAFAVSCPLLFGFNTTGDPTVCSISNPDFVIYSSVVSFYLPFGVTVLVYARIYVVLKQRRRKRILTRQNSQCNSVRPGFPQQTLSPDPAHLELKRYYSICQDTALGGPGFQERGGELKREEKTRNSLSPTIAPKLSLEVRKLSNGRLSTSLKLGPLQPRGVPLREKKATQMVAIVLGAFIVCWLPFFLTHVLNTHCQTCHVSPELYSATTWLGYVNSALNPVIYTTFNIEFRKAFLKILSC
Also: assay procedure not described here.

Voltage-dependent L-type calcium channel subunit alpha-1C, sequence (P22002 whole entry): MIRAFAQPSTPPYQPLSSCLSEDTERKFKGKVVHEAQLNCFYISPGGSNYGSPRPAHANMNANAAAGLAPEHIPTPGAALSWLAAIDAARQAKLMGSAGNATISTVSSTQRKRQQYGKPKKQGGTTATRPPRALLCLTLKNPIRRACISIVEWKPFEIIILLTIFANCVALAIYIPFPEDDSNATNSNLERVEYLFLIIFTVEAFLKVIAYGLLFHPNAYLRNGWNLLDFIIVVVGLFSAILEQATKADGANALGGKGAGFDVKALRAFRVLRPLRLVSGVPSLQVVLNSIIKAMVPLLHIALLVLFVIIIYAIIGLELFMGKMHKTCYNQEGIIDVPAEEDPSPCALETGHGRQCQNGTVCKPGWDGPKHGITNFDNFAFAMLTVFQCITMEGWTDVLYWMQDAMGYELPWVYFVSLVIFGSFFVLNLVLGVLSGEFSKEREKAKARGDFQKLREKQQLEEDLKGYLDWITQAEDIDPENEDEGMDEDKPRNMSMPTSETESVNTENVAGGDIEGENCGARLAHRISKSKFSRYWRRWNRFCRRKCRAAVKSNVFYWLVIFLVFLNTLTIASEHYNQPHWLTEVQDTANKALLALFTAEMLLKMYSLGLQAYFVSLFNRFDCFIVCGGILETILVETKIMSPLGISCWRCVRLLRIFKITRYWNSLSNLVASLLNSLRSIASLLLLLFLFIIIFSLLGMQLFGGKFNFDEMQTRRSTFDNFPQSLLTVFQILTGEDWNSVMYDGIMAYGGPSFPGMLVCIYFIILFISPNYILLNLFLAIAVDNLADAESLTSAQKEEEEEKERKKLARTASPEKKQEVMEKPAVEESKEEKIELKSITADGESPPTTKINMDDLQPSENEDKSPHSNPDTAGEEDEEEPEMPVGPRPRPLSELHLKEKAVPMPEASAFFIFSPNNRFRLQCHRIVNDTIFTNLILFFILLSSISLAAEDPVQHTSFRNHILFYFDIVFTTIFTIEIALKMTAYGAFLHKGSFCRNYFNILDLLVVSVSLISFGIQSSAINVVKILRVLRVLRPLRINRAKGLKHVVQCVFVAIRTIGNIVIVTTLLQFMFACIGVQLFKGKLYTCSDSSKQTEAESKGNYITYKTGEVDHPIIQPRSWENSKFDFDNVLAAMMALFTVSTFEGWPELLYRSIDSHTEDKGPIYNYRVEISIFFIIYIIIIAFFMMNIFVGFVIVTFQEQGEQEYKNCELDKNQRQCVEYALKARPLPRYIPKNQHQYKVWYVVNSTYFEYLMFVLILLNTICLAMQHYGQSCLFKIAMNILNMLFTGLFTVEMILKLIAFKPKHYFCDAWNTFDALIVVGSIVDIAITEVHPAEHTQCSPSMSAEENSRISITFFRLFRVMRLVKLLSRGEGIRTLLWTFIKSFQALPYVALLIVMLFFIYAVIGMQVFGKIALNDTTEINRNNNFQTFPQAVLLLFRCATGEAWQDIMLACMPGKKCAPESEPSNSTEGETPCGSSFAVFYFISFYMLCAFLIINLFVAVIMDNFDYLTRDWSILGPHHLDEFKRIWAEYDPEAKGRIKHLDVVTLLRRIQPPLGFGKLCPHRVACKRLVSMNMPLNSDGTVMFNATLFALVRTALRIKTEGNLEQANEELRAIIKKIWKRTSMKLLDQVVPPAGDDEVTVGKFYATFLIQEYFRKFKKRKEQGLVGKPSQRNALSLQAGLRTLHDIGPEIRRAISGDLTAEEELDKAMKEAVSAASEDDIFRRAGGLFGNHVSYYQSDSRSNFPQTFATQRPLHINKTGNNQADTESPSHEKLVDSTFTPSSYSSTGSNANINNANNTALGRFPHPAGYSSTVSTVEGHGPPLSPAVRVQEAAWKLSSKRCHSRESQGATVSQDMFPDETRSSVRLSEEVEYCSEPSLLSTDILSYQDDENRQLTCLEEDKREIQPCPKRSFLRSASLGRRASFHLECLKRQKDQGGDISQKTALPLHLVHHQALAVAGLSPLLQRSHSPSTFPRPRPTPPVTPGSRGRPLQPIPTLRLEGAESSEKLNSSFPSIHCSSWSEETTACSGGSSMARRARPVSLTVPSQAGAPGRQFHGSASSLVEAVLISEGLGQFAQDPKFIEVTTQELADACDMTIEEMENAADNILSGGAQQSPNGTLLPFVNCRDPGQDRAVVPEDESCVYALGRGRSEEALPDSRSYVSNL
Melanocortin receptor 3, sequence (P41968 whole entry): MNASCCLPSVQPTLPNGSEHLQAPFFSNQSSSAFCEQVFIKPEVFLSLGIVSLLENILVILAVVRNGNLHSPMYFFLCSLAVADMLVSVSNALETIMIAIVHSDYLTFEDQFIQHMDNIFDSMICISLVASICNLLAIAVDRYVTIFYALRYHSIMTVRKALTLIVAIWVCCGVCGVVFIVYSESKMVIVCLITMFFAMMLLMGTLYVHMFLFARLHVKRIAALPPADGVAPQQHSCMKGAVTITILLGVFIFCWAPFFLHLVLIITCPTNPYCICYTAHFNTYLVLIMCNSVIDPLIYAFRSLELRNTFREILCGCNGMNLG

Compound | AC50 [1] | AC50 [2] | AC50 [3] | AC50 [4] | AC50 [5] | AC50 [6] | AC50 [7] | AC50 [8] | AC50 [9] | AC50 [10]
Oc1ccc(CCNCCCCCCNCCc2ccccc2)cc1O [DOPEXAMINE] | > 30 µM | > 30 µM | 29 µM | > 30 µM | > 30 µM | > 30 µM | > 30 µM | > 30 µM | 12 µM | 0.16 µM
CCN1CC(CCN2CCOCC2)C(c2ccccc2)(c2ccccc2)C1=O (stereo not given) [DOXAPRAM] | > 30 µM | > 30 µM | > 30 µM | > 30 µM | > 30 µM | > 30 µM | > 30 µM | > 30 µM | > 30 µM | > 30 µM
CCc1cc2c(s1)-n1c(C)nnc1CN=C2c1ccccc1Cl [ETIZOLAM] | > 30 µM | > 30 µM | 19 µM | > 30 µM | > 30 µM | > 30 µM | > 30 µM | > 30 µM | > 30 µM | > 30 µM
CCOC(=O)c1ncn2c1CN(C)C(=O)c1cc(F)ccc1-2 [FLUMAZENIL] | > 30 µM | > 30 µM | > 30 µM | > 30 µM | > 30 µM | > 30 µM | > 30 µM | > 30 µM | > 30 µM | > 30 µM
CC/C=C\C/C=C\C/C=C\C/C=C\C/C=C\CCCC(=O)OCC [ICOSAPENT ETHYL] | > 30 µM | > 30 µM | 12 µM | > 30 µM | > 30 µM | > 30 µM | > 30 µM | > 30 µM | 18 µM | > 30 µM
NNC(=O)c1ccncc1 [ISONIAZID] | > 30 µM | > 30 µM | > 30 µM | > 30 µM | > 30 µM | > 30 µM | > 10 µM | > 30 µM | 32.7 µM | > 30 µM
COc1ccc(CN2CCN(C(c3ccc(F)cc3)c3ccc(F)cc3)CC2)c(OC)c1OC [LOMERIZINE] | > 30 µM | 2.4 µM | > 30 µM | > 30 µM | > 30 µM | > 30 µM | > 30 µM | > 30 µM | 17 µM | 2.2 µM
CN1CCN=C(c2ccccc2)c2cc(Cl)ccc21 [MEDAZEPAM] | > 30 µM | > 30 µM | 5.2 µM | > 30 µM | > 30 µM | > 30 µM | > 30 µM | > 30 µM | 15 µM | > 30 µM
CC(=O)[C@H]1CC[C@H]2[C@@H]3C[C@H](C)C4=CC(=O)CC[C@]4(C)[C@H]3[C@@H](O)C[C@]12C [MEDRYSONE] | > 10 µM | > 10 µM | > 30 µM | > 30 µM | 0.0027 µM | > 10 µM | > 10 µM | > 10 µM | > 10 µM | > 30 µM
